Read-outs that look alike come from different tables or passages of the source. Marks after values point to notes of the source that are not given here.
Tests used:
[1] = Longitudinal relaxivity (r1) from T1 measurements at 60 MHz, absence of copper; assay type: physicochemical; conditions: no copper; 60 MHz, 20 mM HEPES buffer, pH 7, 37° C., 0.2 mM Gd^3+
Method: (§1) The longitudinal relaxivity values for the CG contrast agents in the absence or presence of copper ions were determined using T1 measurements at 60 MHz. Studies were performed at 37° C. in 20 mM HEPES buffered to pH 7, and solutions of the purified CG sensors for relaxivity experiments contained 0.2 mM Gd^3+ as determined by ICP-OES. Spectroscopic data are collected in Table 1.
Nuclear magnetic relaxation dispersion (NMRD) experiments provide supporting evidence for this proposal (vide infra).

[2] = Electrochemical Cu2+/Cu+ reduction potentials of copper-bound CG complexes; assay type: physicochemical; conditions: PBS buffer, pH 7.4
Method: CG6 is a unique member of the CG family that is equally responsive to both Cu^+ and Cu^2+. Addition of either Cu^+ or Cu^2+ to CG6 triggers a maximum 73% relaxivity turn-on from r1=2.2 mM^−1s^−1 to r1=3.8 mM^−1s^−1. […] On the other hand, copper-bound CG6, which responds to both Cu^+ and Cu^2+, has the least positive Cu^2+/Cu^+ reduction potential at +0.13 V.

[3] = Apparent Kd for Cu+ by UV-visible absorption with competing ligand thiourea; assay type: binding; conditions: 20 mM HEPES buffer, pH 7, 25° C., 1:1 stoichiometry assumed, read-out: Kd (apparent dissociation constant)
Method: FIG. 5. Normalized absorbance response of 0.2 mM CG2-6 to buffered Cu^+ (CG2-5) or Cu^2+ (CG6) solutions for Kd value determination. Spectra were acquired in 20 mM HEPES, pH 7.

[4] = Nuclear magnetic relaxation dispersion (NMRD) profiles, Solomon-Bloembergen-Morgan fit; assay type: physicochemical; conditions: copper free; for r1p 20 MHz 25° C.: 0.5 mM, 20 mM HEPES pH 7; for a (distance of closest approach of outer-sphere water protons) / Δ^2 (average quadratic transient zero field splitting) / τv (electronic correlation time): best-fit value; for q: fixed in the fitting procedure; for τR (rotational correlation time): not experimentally determined, assumed equal to corresponding q ≠ 0 complex (CG5: average of the other complexes)
Method: FIG. 9. ^1H Nuclear magnetic relaxation dispersion profiles of CG3 and CG3+Cu^+ acquired at 25° C. The solid lines represent the best fit profiles.
As a secondary, independent set of experiments to further probe the mechanisms of copper ion sensing by the CG contrast agents, we also performed nuclear magnetic relaxation dispersion (NMRD) measurements of these sensors in the absence and in the presence of copper ions using a field cycling relaxometer (FIG. 9). The profiles obtained were analyzed following Solomon-Bloembergen-Morgan theory^36-38 for the inner-sphere relaxivity and the Freed model^115 for the outer-sphere relaxivity, fixing the diffusion coefficient (D) at […], the distance between Gd^3+ and the inner sphere water protons (r) at 3.1 Å, and the inner sphere exchange lifetime (τM) at 160 ns, the reported value for the parent complex Gd^3+-DO3A. Profiles were obtained for all compounds in the copper-free state. Profiles in the presence of Cu^n+ were obtained for CG2-4 (Cu^+) and CG6 (Cu^2+).
In fact, the measured outer-sphere relaxivities were so low that, in order to obtain a reasonable fit, the distance of closest approach of outer-sphere water protons (a) was allowed to vary. The distances obtained for the CG complexes (4.2-4.8 Å) were markedly longer than what is observed for typical Gd^3+ contrast agents with greater water access (3.8-4 Å). These values correlate with the copper-free relaxivities of CG2-6; longer a values give lower relaxivities and shorter a values give higher relaxivities. For Cu^+-sensing agents CG2-4, the estimated change in q of 2 as determined by DIS measurements was also observed in the fitted NMRD data. In fact, any attempt to fit the observed NMRD profiles with q=1 led to very poor agreement between experimental and calculated values. The change in q of 1 for CG6 upon addition of Cu^2+ as determined by NMRD is consistent with the lower turn-on response observed with this complex compared to CG2-4. The reduced q modulation for CG6 relative to CG2-4 could indicate that the carboxylic acid moiety used for Cu^2+ binding also interacts with the Gd^3+ center in the Cu^2+-bound state. The fitted rotational correlation times (τR) for copper-bound CG complexes all fall within the range expected for Gd^3+ complexes with molecular weights of 700-800 D. τR values for copper-free CG2-6 were fixed to values close to their copper-bound analogues as fits of NMRD data for q=0 complexes are not sensitive to small changes in τR. The values of Δ^2 (average quadratic transient zero field splitting), τv (electronic correlation time), and τs0 (electronic relaxation time at zero field), which govern the electronic relaxation time, are relatively similar to each other. These NMRD values are closer to those of Gd^3+-DTPA than Gd^3+-DOTA, reflecting the asymmetry of CG2-6.^64

[5] = Longitudinal relaxivity (r1) turn-on response to Cu+ from T1 measurements at 60 MHz; assay type: physicochemical; conditions: pH 7, 37° C.; for r1 (1 equiv Cu): 20 mM HEPES buffer
Method: as §1
Upon addition of up to 1 equiv of copper ions, the relaxivity values of the CG contrast agents increase, establishing the ability of these probes to sense copper using the MR modality (Table 1, FIG. 3). CG2, CG3, CG4, and CG5 respond to Cu^+ with relaxivity increases ranging from 92% to 360%. […] These values represent the largest relaxivity enhancements observed to date for metal-activated MR contrast agents and a ca. 9-fold improvement in copper ion response compared to CG1 (41% increase). The observed differences in turn-on Cu^+ responses for benzyl-substituted CG4 (290% increase) versus methyl-substituted CG5 (92% increase) with the same pyridyl-thioether receptor show the marked effects that small peripheral substitutions can have on relaxivity properties.

[6] = Metal ion selectivity of relaxivity response (competing metal ions alone or with added copper); assay type: physicochemical; conditions: relaxivity at 60 MHz, 20 mM HEPES, pH 7, 37° C.
Method: FIG. 6. Relaxivity responses of CG2 to various metal ions. White bars represent the addition of an excess of the appropriate metal ion (10 mM for Na^+, 2 mM for K^+, Mg^2+, and Ca^2+, and 0.2 mM for Fe^2+, Fe^3+, Cu^2+) to a 0.2 mM solution of CG2. Response to Zn^2+ was measured both at 0.2 mM Zn^2+ (Zn^2+1×) and 2 mM Zn^2+ (Zn^2+10×). Black bars represent the subsequent addition of 0.2 mM Cu^+ to the CG2 solution. Relaxivity measurements were acquired at 37° C. in 20 mM HEPES buffer, pH 7, at a proton Larmor frequency of 60 MHz.
The potential ability of this new family of CG sensors to sense bioavailable copper pools in either or both its predominant oxidation states represents a significant advance over the initial CG1 compound.

[7] = in water, measured at 10 MHz; cited from earlier work
[8] = see reference 90, cited from earlier work
[9] = Dysprosium-induced 17O NMR shift (DIS) experiments for q; assay type: physicochemical; conditions: for −Δ ppm/[Dy] (DIS slope): no Cu^+
Method: FIG. 8. Plot of [DyCG2] vs. −Δ ppm of the ^17O signal of H2O in the absence and presence of 1 equiv Cu^+. Spectra were acquired at room temperature in 20 mM HEPES buffer, pH 7, at a ^17O Larmor frequency of 67.8 MHz.
To circumvent these issues, we turned our attention to an alternative method for obtaining q values, namely the application of ^17O NMR spectroscopy to Dy^3+ analogs of the CG sensors (DyCG2-6).^114 Specifically, interactions of water ligands with paramagnetic Dy^3+ ions lead to an upfield shift of the ^17O signals of H2O in a manner proportional to both the concentration of Dy^3+ and q. Moreover, this lanthanide-induced shift is largely insensitive to the non-water ligands coordinated to the paramagnetic metal center.^114 Dysprosium-induced shift (DIS) experiments for CG2 and CG3 were performed in 20 mM HEPES buffered to pH 7; CG4 and CG5 spectra were acquired in 10% acetonitrile in 20 mM HEPES buffered to pH 7 owing to solubility and stability of the Cu^+-bound complexes at higher Dy^3+ concentrations required for the DIS measurements (1-200 mmol/kg H2O). Dy concentrations were calculated using molality (with respect to H2O) since the ^17O shift represents the interaction between Dy^3+ and H2O; addition of CH3CN aids in stabilizing certain complexes but should not affect the DIS. The spectral results were calibrated to a DyCl3 standard (q=9) to determine the number of bound water molecules for the CG sensors with and without added Cu^+. A plot of varying DyCl3 concentrations versus DIS in pH 7 HEPES buffer has a slope of 324 ppm/(mol/kg H2O), which corresponds to a 36 ppm/(mol/kg H2O) shift per bound water molecule.
The effects of DyCG2 on the chemical shift of ^17O-labeled H2O were determined in the absence and presence of 1 equiv Cu^+ at various concentrations of Dy^3+ (FIG. 8). In the absence of Cu^+, the measured ^17O shift response for DyCG2 is 9 ppm/(mol/kg H2O), corresponding to q=0.3. When 1 equiv of Cu^+ is added, the observed shift response increases to 72 ppm/(mol/kg H2O), corresponding to q=2.0. […] DIS measurements of DyCG4 and DyCG5 without Cu^+ show slopes of 7 ppm/(mol/kg H2O) (q=0.2) and 12 ppm/(mol/kg H2O) (q=0.3), respectively. Cu^+ binding increases the DIS slopes for DyCG4 and DyCG5 to […] ([…]) and 41 ppm/(mol/kg H2O) (q=1.0), respectively.

SMILES | r1 (no Cu) [1] [mM⁻¹ s⁻¹] | Cu^2+/+ E1/2 [2] [V vs. SHE] | Kd [3] [nM] | τs0 (electronic relaxation time at zero field) [4] [ps] | r1p 20 MHz 25° C. [4] [mM⁻¹ s⁻¹] | a (distance of closest approach of outer-sphere water protons) [4] [Å] | Δ^2 (average quadratic transient zero field splitting) [4] | τv (electronic correlation time) [4] [ps] | q [4] | τR (rotational correlation time) [4] | r1 (1 equiv Cu) [5] | redox specificity of relaxivity response (Cu^+ vs Cu^2+) [6] | % increase in r1 ([5]; 1 equiv Cu^+ vs no Cu, 20 mM HEPES) [%] | r1 value [7] [mM⁻¹ s⁻¹] | q of calibration standard ([8]; 20 mM HEPES, pH 7) | q of calibration standard ([8]; 10% CH3CN in 20 mM HEPES pH 7) | −Δ ppm/[Dy] (DIS slope) ([9]; 20 mM HEPES, pH 7) | −Δ ppm/[Dy] (DIS slope) ([9]; 10% CH3CN in 20 mM HEPES pH 7) | shift per bound water molecule ([9]; 10% acetonitrile in 20 mM pH 7 HEPES buffer) | shift per bound water molecule ([9]; pH 7 HEPES buffer)
CCSCCN(Cc1ccccc1)Cc1cccc(CN2CCN(CC(=O)[O-])CCN(CC(=O)[O-])CCN(CC(=O)[O-])CC2)n1.[Gd+3] [CG4] | 1.7 | 0.40 | 0.014 | 99 | 2.1 | 4.2 ± 0.15 | 3.4 ± 1.4 10^19 s^−2 | 25 ± 7.7 | 0^c | 130^d ps | 6.6^b mM^−1s^−1 | give turn-on relaxivity increases with Cu^+ but do not respond to Cu^2+ | – | – | – | – | – | – | – | –
CCSCCN(C)Cc1cccc(CN2CCN(CC(=O)[O-])CCN(CC(=O)[O-])CCN(CC(=O)[O-])CC2)n1.[Gd+3] [CG5] | 1.2 | 0.34 | 0.032 | 95 | 1.6 | 4.8 ± 0.12 | 3.5 ± 0.8 10^19 s^−2 | 25 ± 4.2 | 0^c | 100^e ps | 2.3^b mM^−1s^−1 | give turn-on relaxivity increases with Cu^+ but do not respond to Cu^2+ | 92 | – | – | – | – | – | – | –
[Cu+2] [Cu^2+] | – | – | – | – | – | – | – | – | – | – | – | – | – | 1.0 | – | – | – | – | – | –
[Cl][Dy]([Cl])[Cl] [DyCl3, reference compound] | – | – | – | – | – | – | – | – | – | – | – | – | – | – | 9^a | 9^a | 324 ppm/(mol/kg H2O) | 362 ppm/(mol/kg H2O) | 40 ppm/(mol/kg H2O) | 36 ppm/(mol/kg H2O)

Source: US20110294992A1, “METAL RESPONSIVE MRI-AGENTS” (The Regents of the University of California, priority 2010, published 2011)
